# Test results taken from PubChem BioAssay (NCI).
#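 Exposure lasted 48 hours, with cells grown in 96-well plates and compounds tested at five concentrations. Here, GI50 denotes the concentration required for 50% inhibition of growth. TGI marks complete inhibition of growth.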
# What was measured:
# Test in all cases: inhibition of tumour cell growth, NCI panel, 48 h
# LOX IMVI melanoma = system: LOX IMVI melanoma
# UACC-257 melanoma = system: UACC-257 melanoma
# TK-10 renal = system: TK-10 renal
# UO-31 renal = system: UO-31 renal
# SK-MEL-28 melanoma = system: SK-MEL-28 melanoma
# NCI/ADR-RES ovarian = system: NCI/ADR-RES ovarian
# SNB-75 CNS = system: SNB-75 CNS
# EKVX NSCLC = system: EKVX NSCLC
# HCT-116 colon = system: HCT-116 colon
# NCI-H460 lung = system: NCI-H460 lung
# HS 578T breast = system: HS 578T breast
# A549 NSCLC = system: A549 NSCLC
# UACC-62 melanoma = system: UACC-62 melanoma
# OVCAR-5 ovarian = system: OVCAR-5 ovarian
# BT-549 breast = system: BT-549 breast
# SW-620 colon = system: SW-620 colon
# MOLT-4 leukemia = system: MOLT-4 leukemia
# OVCAR-8 ovarian = system: OVCAR-8 ovarian
# CAKI-1 renal = system: CAKI-1 renal
# K-562 leukemia = system: K-562 leukemia
# SNB-19 CNS = system: SNB-19 CNS
# SF-268 CNS = system: SF-268 CNS
# KM12 colon = system: KM12 colon
# SR leukemia = system: SR leukemia
# NCI-H23 lung = system: NCI-H23 lung
# HOP-92 NSCLC = system: HOP-92 NSCLC
# NCI-H522 lung = system: NCI-H522 lung
# HL-60(TB) leukemia = system: HL-60(TB) leukemia
# RPMI-8226 leukemia = system: RPMI-8226 leukemia
# SF-295 CNS = system: SF-295 CNS
# A498 renal = system: A498 renal
# SK-OV-3 ovarian = system: SK-OV-3 ovarian
# HCT-15 colon = system: HCT-15 colon
# MDA-MB-435 = system: MDA-MB-435
# NCI-H226 lung = system: NCI-H226 lung
# M14 melanoma = system: M14 melanoma
# SF-539 CNS = system: SF-539 CNS
# CCRF-CEM leukemia = system: CCRF-CEM leukemia
# MDA-MB-231 breast = system: MDA-MB-231 breast
# MALME-3M melanoma = system: MALME-3M melanoma
# HOP-62 NSCLC = system: HOP-62 NSCLC
# SK-MEL-5 melanoma = system: SK-MEL-5 melanoma
# OVCAR-4 ovarian = system: OVCAR-4 ovarian
# 786-0 renal = system: 786-0 renal
# HT29 colon = system: HT29 colon
# U251 CNS = system: U251 CNS
# DU-145 prostate = system: DU-145 prostate
# PC-3 prostate = system: PC-3 prostate
# MCF7 breast = system: MCF7 breast
# RXF 393 renal = system: RXF 393 renal
# ACHN renal = system: ACHN renal
# SN12C renal = system: SN12C renal
# SK-MEL-2 melanoma = system: SK-MEL-2 melanoma
# HCC-2998 colon = system: HCC-2998 colon
# IGROV1 ovarian = system: IGROV1 ovarian
smiles,measurement,setting,value
COc1ccccc1NC1=C(Cl)C(=O)c2nc(C)ccc2C1=O,GI50,LOX IMVI melanoma,952 nM
same,TGI,LOX IMVI melanoma,2360 nM
same,GI50,UACC-257 melanoma,1570 nM
same,TGI,UACC-257 melanoma,3090 nM
same,GI50,TK-10 renal,2340 nM
same,TGI,TK-10 renal,3860 nM
same,GI50,UO-31 renal,1420 nM
same,TGI,UO-31 renal,2730 nM
same,GI50,SK-MEL-28 melanoma,1850 nM
same,TGI,SK-MEL-28 melanoma,3340 nM
same,GI50,NCI/ADR-RES ovarian,2030 nM
same,TGI,NCI/ADR-RES ovarian,5160 nM
same,GI50,SNB-75 CNS,1500 nM
same,TGI,SNB-75 CNS,2840 nM
same,GI50,EKVX NSCLC,1610 nM
same,TGI,EKVX NSCLC,3050 nM
same,GI50,HCT-116 colon,1530 nM
same,TGI,HCT-116 colon,4160 nM
same,GI50,NCI-H460 lung,3220 nM
same,TGI,NCI-H460 lung,12000 nM
same,GI50,HS 578T breast,2270 nM
same,TGI,HS 578T breast,5640 nM
same,GI50,A549 NSCLC,2440 nM
same,TGI,A549 NSCLC,6240 nM
same,GI50,UACC-62 melanoma,1820 nM
same,TGI,UACC-62 melanoma,3370 nM
same,GI50,OVCAR-5 ovarian,1860 nM
same,TGI,OVCAR-5 ovarian,3420 nM
same,GI50,BT-549 breast,1720 nM
same,TGI,BT-549 breast,3270 nM
same,GI50,SW-620 colon,1840 nM
same,TGI,SW-620 colon,3730 nM
same,GI50,MOLT-4 leukemia,2270 nM
same,TGI,MOLT-4 leukemia,8600 nM
same,GI50,OVCAR-8 ovarian,1610 nM
same,TGI,OVCAR-8 ovarian,3250 nM
same,GI50,CAKI-1 renal,1500 nM
same,TGI,CAKI-1 renal,2870 nM
same,GI50,K-562 leukemia,290 nM
same,TGI,K-562 leukemia,2940 nM
same,GI50,SNB-19 CNS,1810 nM
same,TGI,SNB-19 CNS,3720 nM
same,GI50,SF-268 CNS,1530 nM
same,TGI,SF-268 CNS,3050 nM
same,GI50,KM12 colon,1490 nM
same,TGI,KM12 colon,3080 nM
same,GI50,SR leukemia,794 nM
same,TGI,SR leukemia,4250 nM
same,GI50,NCI-H23 lung,1470 nM
same,TGI,NCI-H23 lung,3310 nM
same,GI50,HOP-92 NSCLC,1850 nM
same,TGI,HOP-92 NSCLC,3300 nM
same,GI50,NCI-H522 lung,1810 nM
same,TGI,NCI-H522 lung,3360 nM
same,GI50,HL-60(TB) leukemia,1370 nM
same,TGI,HL-60(TB) leukemia,3520 nM
same,GI50,RPMI-8226 leukemia,1570 nM
same,TGI,RPMI-8226 leukemia,4610 nM
same,GI50,SF-295 CNS,1850 nM
same,TGI,SF-295 CNS,3420 nM
same,GI50,A498 renal,1900 nM
same,TGI,A498 renal,4600 nM
same,GI50,SK-OV-3 ovarian,12600 nM
same,TGI,SK-OV-3 ovarian,27500 nM
same,GI50,HCT-15 colon,1330 nM
same,TGI,HCT-15 colon,3020 nM
same,GI50,MDA-MB-435,1700 nM
same,TGI,MDA-MB-435,3110 nM
same,GI50,NCI-H226 lung,1930 nM
same,TGI,NCI-H226 lung,4520 nM
same,GI50,M14 melanoma,1820 nM
same,TGI,M14 melanoma,3810 nM
same,GI50,SF-539 CNS,1680 nM
same,TGI,SF-539 CNS,3130 nM
same,GI50,CCRF-CEM leukemia,1940 nM
same,TGI,CCRF-CEM leukemia,8210 nM
same,GI50,MDA-MB-231 breast,1190 nM
same,TGI,MDA-MB-231 breast,2530 nM
same,GI50,MALME-3M melanoma,1710 nM
same,TGI,MALME-3M melanoma,3190 nM
same,GI50,HOP-62 NSCLC,2410 nM
same,TGI,HOP-62 NSCLC,6980 nM
same,GI50,SK-MEL-5 melanoma,1750 nM
same,TGI,SK-MEL-5 melanoma,3170 nM
same,GI50,OVCAR-4 ovarian,1210 nM
same,TGI,OVCAR-4 ovarian,2490 nM
same,GI50,786-0 renal,1910 nM
same,TGI,786-0 renal,3610 nM
same,GI50,HT29 colon,2130 nM
same,TGI,HT29 colon,4490 nM
same,GI50,U251 CNS,1850 nM
same,TGI,U251 CNS,3730 nM
same,GI50,DU-145 prostate,1720 nM
same,TGI,DU-145 prostate,3110 nM
same,GI50,PC-3 prostate,1210 nM
same,TGI,PC-3 prostate,2580 nM
same,GI50,MCF7 breast,1780 nM
same,TGI,MCF7 breast,4490 nM
same,GI50,RXF 393 renal,1420 nM
same,TGI,RXF 393 renal,2760 nM
same,GI50,ACHN renal,1470 nM
same,TGI,ACHN renal,2800 nM
same,GI50,SN12C renal,1700 nM
same,TGI,SN12C renal,3290 nM
same,GI50,SK-MEL-2 melanoma,1810 nM
same,TGI,SK-MEL-2 melanoma,3350 nM
same,GI50,HCC-2998 colon,1870 nM
same,TGI,HCC-2998 colon,3460 nM
same,GI50,IGROV1 ovarian,1460 nM
same,TGI,IGROV1 ovarian,2920 nM
